Assay results: patent US20160002297A1, “THERAPEUTIC AGENTS” (NATIONAL UNIVERSITY OF SINGAPORE, priority 2013, published 2016)
Positions of bridges follow the written chain, without caps; N, C: chain ends. Residues, ends and D or L forms follow the SMILES beside them.

What was measured:
[1] = tested on: HUVECs; assay: Tube formation assay on Matrigel; type: cell-based, human
Experimental: HUVECs (1×10^4) were pre-treated with peptides of various concentrations for 30 min before being plated onto the polymerized Matrigel (Millipore, USA) in 15-well μ-slide (Ibidi, Germany). After 4-6 h, capillary network was documented using Zeiss Axiovert200 inverted microscope (Maple Grove, Minn., USA). Tube length was quantified by measuring the length of branches in representative fields using ImageJ software. Plots represented the mean of 3 wells of tubular length in 15-well μ-slide (t SEM).

[2] = tested on: B16 melanoma; assay: Pre-established subcutaneous B16 melanoma growth in mice, intravenous treatment; type: in vivo, mouse
Experimental: X-axis represents the days after inoculation of 5×10^5 tumor cells. Groups consisted of mice receiving cRAA and cRKD given in six doses of 250 μg through tail vein injection on days 8, 9, 10, 11, 12 and 13 (5 mice in each group, each mice with one tumor). (b) Tumor weight at the end of the experiment (day 14). (c) Dissected tumors at the end of experiment. […] Paraffin sections of B16 tumors were probed for microvascular density (MVD), tumor cell proliferation and apoptosis through immunofluoresence staining using anti-CD31, anti-PCNA and TUNEL staining respectively. (f) Quantification of MVD, cell proliferation and apoptosis. Plots represent the mean of 3 fields per section, 3 sections per tumor and 2 tumors per group. **P<0.01. Error bars denote SEM.

[3] = tested on: 4T1 breast carcinoma; assay: Subcutaneous 4T1 breast carcinoma growth in mice, intravenous treatment; type: in vivo, mouse
Experimental: FIG. 13 cRKD peptide inhibits subcutaneous 4T1 breast carcinoma growth in mice when delivered intravenously. (a) 4T1 tumor growth curve in mice. X-axis represents the days after inoculation of 1 million tumor cells. Groups consisted of mice receiving 250 μg cRAA peptide or cRKD peptide through tail vein injection every other day from day 0 (date of inoculation) to 22. N=10. (b) Tumor weight at the end of the experiment (day 22). (c) Dissected tumors at the end of experiment. […] Paraffin sections of 4T1 tumors were probed for microvascular density (MVD), tumor cell proliferation and apoptosis through IF using anti-CD31, anti-PCNA and TUNEL staining respectively. (f) Quantification of MVD, cell proliferation and apoptosis. Plots represent the mean of 3 fields per section, 3 sections per tumor and 2 tumors per group. **P<0.01. Error bars denote SEM. […] Double immunofluorescence staining using anti-CD31 (red) and TUNEL (green) is shown. Nuclei were counter stained by DAPI (blue). Representative photos are shown. Apoptotic EC is indicated by white arrow.

[4] = anti-CD31, anti-PCNA and TUNEL staining

N=C(N)NCCC[C@@H]1NC(=O)[C@@H](N)CSSC[C@@H](C(=O)O)NC(=O)[C@H](CC(=O)O)NC(=O)[C@H](CCCCN)NC1=O [cRKD, Cyclic CRKDC peptide] (H-CRKDC-OH; disulfide 1-5; N-terminus and C-terminus assumed)
anti-angiogenic activity at 1 μM ([1]; 1 μM peptide): inhibited angiogenesis with similar potency | inhibition of EC tube-like structure formation on Matrigel ([1]; dose-dependence): does-dependently inhibited EC tube-like structure formation | tumor angiogenesis, proliferation and apoptosis in pre-established B16 tumor [2, 4]: suppressed tumor angiogenesis, proliferation and induced apoptosis | vascularization of pre-established B16 tumors ([2]; compared to control): reduced vascularization | pre-established B16 tumor growth ([2]; six doses of 250 μg tail vein on days 8-13): inhibits pre-established subcutaneous B16 melanoma growth | 4T1 tumor growth ([3]; 250 μg tail vein every other day, day 0 to 22, vs cRAA): suppressed subcutaneous 4T1 breast cancer growth | apoptosis of cancer cells and cancer ECs in 4T1 breast carcinoma ([3]; CD31/TUNEL double staining): induces apoptosis of both cancer cells and cancer ECs | tumor angiogenesis, proliferation and apoptosis in 4T1 tumor [3, 4]: suppressed tumor angiogenesis, proliferation and induced apoptosis | vascularization of 4T1 tumors ([3]; compared to control): reduced vascularization | suppression of breast cancer growth ([3]; intravenous injection): 75%
